Experimental data from patent publication US9072712B2, “Synergistic antimicrobial preparations containing chlorite and hydrogen peroxide” (priority 1999, dated 2015).
“Also recorded” adds a separate entry of the source.

Assays:
[1] = system: S. haemolyticus keratitis in rabbits; experiment: In-vivo antimicrobial efficacy in infectious S. haemolyticus keratitis (corneal CFU)
Method: (§1) After 24 hours, all corneas were likewise infected, and the rabbits were divided randomly into three groups. The rabbits (five) of Group I then were treated with the chlorite-hydrogen peroxide formulation defined above as cleaning while wearing contact lenses (here termed “Bactericide”); the rabbits (five) of Group II were treated with commercially available 0.3% ofloxacin antibiotic ophthalmic solution; and the rabbits (two) of Group III were untreated to serve as a control. At 24 and 48 hours post infection, the rabbits underwent visual eye examination, photographic documentation and biomicroscopy. After 24 hours of treatment, three animals each from Groups I and II and one animal from Group III were sacrificed. The eyes were enucleated and an 8 mm disc of cornea was homogenized and plated onto growth media for microbial isolation and quantification. After 48 hours of treatment, the same procedure was followed for the remaining animals.

[2] = system: S. haemolyticus keratitis in rabbits; experiment: In-vivo clinical efficacy in infectious S. haemolyticus keratitis
Method: as §1

[3] = system: antibiotic-resistant strain of staphylococcus haemolyticus; experiment: In-vitro antimicrobial effect (log reduction); type: cell-based
[4] = system: antibiotic-resistant strain of pseudomonas aeruginosa; experiment: In-vitro antimicrobial effect (log reduction); type: cell-based
normal human eyes = conditions: in the presence of sodium chlorite (400 ppm)
Text: Two drops of each formulation were then placed in the cul-de-sac of two normal human eyes. Upon instillation of the drops, the subjects were instructed to close their eyelids.

human eye = conditions: hydrogen peroxide without sodium chlorite (0.01 wt. %); cited from earlier work
[5] = 24 hours after infection (before treatment)

## CC1COc2c(N3CCN(C)CC3)c(F)cc3c(=O)c(C(=O)O)cn1c23 (stereo not drawn) [0.3% Ofloxacin, ofloxacin]
[1]; 24 hours post treatment
  bacteria isolated from 8 mm disc of cornea, Average: 13,000 CFU
  bacteria isolated from 8 mm disc of cornea, individual animals: iii) 11,000 CFU; also recorded: i) 23,000 CFU; also recorded: ii) 5,000 CFU
[1]; 48 hours post treatment
  bacteria isolated from 8 mm disc of cornea, Average: 5,100 CFU
  bacteria isolated from 8 mm disc of cornea, individual animals: i) 5,000 CFU; also recorded: ii) 5,200 CFU
[2]; [5]
  corneal edema score: corneal edema (+2)
  hyperemia score: hyperemia (+2)
  inflammation score: inflammation(+2)
[2]; 24 hours after treatment
  corneal edema score: corneal edema (+2)
  hyperemia score: hyperemia (+2)
  inflammation score: inflammation(+2)
[2]; 48 hours after treatment
  corneal edema score: corneal edema (+1)
  hyperemia score: hyperemia (+1)
  inflammation score: inflammation(+1)

## OO [H202 alone, hydrogen peroxide]
[3]; 200 ppm, 1 hour
  Log Reduction: 0.20
[3]; 200 ppm, 2 hours
  Log Reduction: 0.23
[4]; 200 ppm, 1 hour
  Log Reduction: 0.01
[4]; 200 ppm, 2 hours
  Log Reduction: 0.54
Normal human eyes
  hydrogen peroxide levels very well tolerated by human eyes: up to 500 ppm
Human eye
  upper limit of human ocular tolerability: about 100 ppm

## sodium chlorite [NaClO2 alone]
[3]; 400 ppm, 1 hour
  Log Reduction: 0.11
[3]; 400 ppm, 2 hours
  Log Reduction: 1.01
[4]; 400 ppm, 1 hour
  Log Reduction: 0.351
[4]; 400 ppm, 1 hour, listed as sodium chlorite
  Log Reduction: 0.35
[4]; 400 ppm, 2 hours
  Log Reduction: 1.35
